Source: the NIST ThermoML archive (doi:10.1016/j.jct.2016.06.012)
± gives the expanded uncertainty stated by the source.

Test: xn = mol fraction of the nth substance listed
Conditions: 100 kPa, Liquid; for viscosity: Capillary tube (Ostwald / Ubbelohde) method; for mass density: Vibrating tube method

Work on `CCC[n+]1ccn(C)c1C.O=S(=O)([N-]S(=O)(=O)C(F)(F)F)C(F)(F)F` + O=C1CCCO1 yielded a viscosity (293.15 K, x1 = 0.0505) of 2.47 ± 0.06 mPa·s, a viscosity (293.15 K, x1 = 0.1001) of 3.4 ± 0.08 mPa·s and a viscosity (293.15 K, x1 = 0.1492) of 4.72 ± 0.11 mPa·s. It also gave a viscosity (293.15 K, x1 = 0.1998) of 6.2 ± 0.14 mPa·s, a viscosity (293.15 K, x1 = 0.3008) of 9.95 ± 0.22 mPa·s and a viscosity (293.15 K, x1 = 0.4031) of 15.94 ± 0.35 mPa·s. The viscosity (293.15 K, x1 = 0.5048) was 25.66 ± 0.57 mPa·s, the viscosity (293.15 K, x1 = 0.6031) was 38.98 ± 0.85 mPa·s and the viscosity (293.15 K, x1 = 0.6973) was 54.53 ± 1.2 mPa·s. For the same compound, the viscosity (293.15 K, x1 = 0.7994) was 74.49 ± 1.6 mPa·s, the viscosity (293.15 K, x1 = 0.8711) was 89.77 ± 2.1 mPa·s and the viscosity (293.15 K, x1 = 1) was 121.7 ± 3 mPa·s. It also gave a mass density (293.15 K, x1 = 0.0505) of 1184.15 ± 9.6 kg/m3, a mass density (293.15 K, x1 = 0.1001) of 1226.3 ± 9.9 kg/m3 and a mass density (293.15 K, x1 = 0.1492) of 1259.98 ± 10 kg/m3. The mass density (293.15 K, x1 = 0.1998) was 1288.55 ± 10 kg/m3, the mass density (293.15 K, x1 = 0.3008) was 1332.65 ± 11 kg/m3 and the mass density (293.15 K, x1 = 0.4031) was 1365.48 ± 11 kg/m3. For the same compound, the mass density (293.15 K, x1 = 0.5048) was 1390.46 ± 11 kg/m3, the mass density (293.15 K, x1 = 0.6031) was 1409.62 ± 11 kg/m3 and the mass density (293.15 K, x1 = 0.6973) was 1424.67 ± 11 kg/m3. It also gave a mass density (293.15 K, x1 = 0.7994) of 1438.25 ± 12 kg/m3, a mass density (293.15 K, x1 = 0.8711) of 1446.46 ± 12 kg/m3 and a mass density (293.15 K, x1 = 1) of 1459.14 ± 12 kg/m3. For the same compound, the viscosity (298.15 K, x1 = 0.0505) was 2.26 ± 0.05 mPa·s, the viscosity (298.15 K, x1 = 0.1001) was 3.07 ± 0.07 mPa·s and the viscosity (298.15 K, x1 = 0.1492) was 4.21 ± 0.1 mPa·s. The viscosity (298.15 K, x1 = 0.1998) was 5.44 ± 0.12 mPa·s, the viscosity (298.15 K, x1 = 0.3008) was 8.61 ± 0.19 mPa·s and the viscosity (298.15 K, x1 = 0.4031) was 13.23 ± 0.29 mPa·s. The viscosity (298.15 K, x1 = 0.5048) was 20.56 ± 0.45 mPa·s, the viscosity (298.15 K, x1 = 0.6031) was 30.47 ± 0.66 mPa·s and the viscosity (298.15 K, x1 = 0.6973) was 42.29 ± 0.91 mPa·s. It also gave a viscosity (298.15 K, x1 = 0.7994) of 57.35 ± 1.2 mPa·s, a viscosity (298.15 K, x1 = 0.8711) of 69.78 ± 1.5 mPa·s and a viscosity (298.15 K, x1 = 1) of 92.8 ± 2.1 mPa·s. It also gave a mass density (298.15 K, x1 = 0.0505) of 1179.18 ± 9.6 kg/m3, a mass density (298.15 K, x1 = 0.1001) of 1221.4 ± 9.8 kg/m3 and a mass density (298.15 K, x1 = 0.1492) of 1255.08 ± 10 kg/m3. For the same compound, the mass density (298.15 K, x1 = 0.1998) was 1283.68 ± 10 kg/m3, the mass density (298.15 K, x1 = 0.3008) was 1327.83 ± 11 kg/m3 and the mass density (298.15 K, x1 = 0.4031) was 1360.68 ± 11 kg/m3. The mass density (298.15 K, x1 = 0.5048) was 1385.67 ± 11 kg/m3, the mass density (298.15 K, x1 = 0.6031) was 1404.85 ± 11 kg/m3 and the mass density (298.15 K, x1 = 0.6973) was 1419.93 ± 11 kg/m3. It also gave a mass density (298.15 K, x1 = 0.7994) of 1433.53 ± 11 kg/m3, a mass density (298.15 K, x1 = 0.8711) of 1441.74 ± 12 kg/m3 and a mass density (298.15 K, x1 = 1) of 1454.44 ± 12 kg/m3. The viscosity (303.15 K, x1 = 0.0505) was 2.1 ± 0.05 mPa·s, the viscosity (303.15 K, x1 = 0.1001) was 2.82 ± 0.07 mPa·s and the viscosity (303.15 K, x1 = 0.1492) was 3.78 ± 0.09 mPa·s. It also gave a viscosity (303.15 K, x1 = 0.1998) of 4.88 ± 0.11 mPa·s, a viscosity (303.15 K, x1 = 0.3008) of 7.6 ± 0.17 mPa·s and a viscosity (303.15 K, x1 = 0.4031) of 11.41 ± 0.25 mPa·s. It also gave a viscosity (303.15 K, x1 = 0.5048) of 17.18 ± 0.37 mPa·s, a viscosity (303.15 K, x1 = 0.6031) of 24.6 ± 0.53 mPa·s and a viscosity (303.15 K, x1 = 0.6973) of 33.28 ± 0.72 mPa·s. It also gave a viscosity (303.15 K, x1 = 0.7994) of 44.5 ± 0.95 mPa·s, a viscosity (303.15 K, x1 = 0.8711) of 54.92 ± 1.2 mPa·s and a viscosity (303.15 K, x1 = 1) of 72.1 ± 1.6 mPa·s. For the same compound, the mass density (303.15 K, x1 = 0.0505) was 1174.28 ± 9.5 kg/m3, the mass density (303.15 K, x1 = 0.1001) was 1216.49 ± 9.8 kg/m3 and the mass density (303.15 K, x1 = 0.1492) was 1250.18 ± 10 kg/m3. For the same compound, the mass density (303.15 K, x1 = 0.1998) was 1278.79 ± 10 kg/m3, the mass density (303.15 K, x1 = 0.3008) was 1322.96 ± 11 kg/m3 and the mass density (303.15 K, x1 = 0.4031) was 1355.84 ± 11 kg/m3. For the same compound, the mass density (303.15 K, x1 = 0.5048) was 1380.86 ± 11 kg/m3, the mass density (303.15 K, x1 = 0.6031) was 1400.07 ± 11 kg/m3 and the mass density (303.15 K, x1 = 0.6973) was 1415.16 ± 11 kg/m3. For the same compound, the mass density (303.15 K, x1 = 0.7994) was 1428.78 ± 11 kg/m3, the mass density (303.15 K, x1 = 0.8711) was 1437 ± 12 kg/m3 and the mass density (303.15 K, x1 = 1) was 1449.72 ± 12 kg/m3. It also gave a viscosity (308.15 K, x1 = 0.0505) of 1.96 ± 0.05 mPa·s, a viscosity (308.15 K, x1 = 0.1001) of 2.56 ± 0.06 mPa·s and a viscosity (308.15 K, x1 = 0.1492) of 3.45 ± 0.08 mPa·s. It also gave a viscosity (308.15 K, x1 = 0.1998) of 4.42 ± 0.1 mPa·s, a viscosity (308.15 K, x1 = 0.3008) of 6.83 ± 0.15 mPa·s and a viscosity (308.15 K, x1 = 0.4031) of 9.99 ± 0.22 mPa·s. For the same compound, the viscosity (308.15 K, x1 = 0.5048) was 14.57 ± 0.32 mPa·s, the viscosity (308.15 K, x1 = 0.6031) was 20.33 ± 0.44 mPa·s and the viscosity (308.15 K, x1 = 0.6973) was 27.25 ± 0.58 mPa·s. For the same compound, the viscosity (308.15 K, x1 = 0.7994) was 35.98 ± 0.77 mPa·s, the viscosity (308.15 K, x1 = 0.8711) was 44.23 ± 0.94 mPa·s and the viscosity (308.15 K, x1 = 1) was 57.76 ± 1.2 mPa·s.
